Experimental data: PubChem BioAssay (NCI)
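Test compounds were applied to cells in 96-well plates for 48 hours at 5 doses. GI50 = concentration required for 50% inhibition of growth. The concentration for full growth arrest is given as TGI.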

How the values were obtained:
Assay in all cases: NCI tumour cell line growth inhibition, 48 h
[1] = tested on: MALME-3M melanoma
[2] = tested on: HCC-2998 colon
[3] = tested on: KM12 colon
[4] = tested on: SF-268 CNS
[5] = tested on: SK-MEL-28 melanoma
[6] = tested on: HL-60(TB) leukemia
[7] = tested on: HT29 colon
[8] = tested on: SK-MEL-2 melanoma
[9] = tested on: SW-620 colon
[10] = tested on: TK-10 renal
[11] = tested on: T-47D breast
[12] = tested on: SF-539 CNS
[13] = tested on: ACHN renal
[14] = tested on: LOX IMVI melanoma
[15] = tested on: UACC-62 melanoma
[16] = tested on: CCRF-CEM leukemia
[17] = tested on: A498 renal
[18] = tested on: COLO 205 colon
[19] = tested on: SNB-19 CNS
[20] = tested on: MOLT-4 leukemia
[21] = tested on: SN12C renal
[22] = tested on: M14 melanoma
[23] = tested on: RPMI-8226 leukemia
[24] = tested on: HOP-92 NSCLC
[25] = tested on: UACC-257 melanoma
[26] = tested on: RXF 393 renal
[27] = tested on: NCI/ADR-RES ovarian

NC(=O)c1cc(-c2ccc3ncnc(N4CCc5cc(F)c(Cl)cc54)c3c2)cnc1N
GI50 [1]: 1510 nM
TGI [1]: 15.2 µM
GI50 [2]: 1680 nM
TGI [2]: 7.09 µM
GI50 [3]: 2330 nM
TGI [3]: 10.9 µM
GI50 [4]: 1880 nM
TGI [4]: 49.8 µM
GI50 [5]: 2670 nM
TGI [5]: 28.5 µM
GI50 [6]: 573 nM
TGI [6]: 6.18 µM
GI50 [7]: 1140 nM
TGI [7]: 9.76 µM
GI50 [8]: 1540 nM
TGI [8]: 4.02 µM
GI50 [9]: 2410 nM
TGI [9]: 19.4 µM
GI50 [10]: 519 nM
TGI [10]: 27.9 µM
GI50 [11]: 273 nM
TGI [11]: 2360 nM
GI50 [12]: 1490 nM
TGI [12]: 3.56 µM
GI50 [13]: 801 nM
TGI [13]: 17 µM
GI50 [14]: 1690 nM
TGI [14]: 12.3 µM
GI50 [15]: 1620 nM
TGI [15]: 18.3 µM
GI50 [16]: 2950 nM
TGI [16]: 34.8 µM
GI50 [17]: 336 nM
TGI [17]: 2460 nM
GI50 [18]: 2700 nM
TGI [18]: 21.4 µM
GI50 [19]: 1820 nM
TGI [19]: > 100 µM
GI50 [20]: 1250 nM
TGI [20]: 6.23 µM
GI50 [21]: 1030 nM
TGI [21]: 25 µM
GI50 [22]: 2840 nM
TGI [22]: 41.4 µM
GI50 [23]: 1390 nM
TGI [23]: 11.3 µM
GI50 [24]: 231 nM
TGI [24]: 2630 nM
GI50 [25]: 2830 nM
TGI [25]: > 100 µM
GI50 [26]: 656 nM
TGI [26]: 2590 nM
GI50 [27]: 3.22 µM
TGI [27]: > 100 µM
